Molecules are shown by their SMILES. Where only a bound is given, the exact number is not on record here.

From ChEMBL document CHEMBL4483862, “Open-source discovery of chemical leads for next-generation chemoprotective antimalarials” (2018) come the findings set out here.

For the assay, the system named is Plasmodium berghei. As to the kind of experiment: Luciferase/luciferin-expressing antifolate-resistant parasites were used to infect a culture of HepG2 cells that were pre-incubated with compounds. Infected hepatocytes emit light due to the luciferase reaction. Assay results are presented as the percent inhibition of light emission compared to control. […]. In kind it is functional. The following applies: sporozoite; for IC90: read-out: LUCIFERASE INFECTION ASSAY - IC90.

The mark [1] stands for this setting: read-out: LUCIFERASE INFECTION ASSAY - IC50.

With `Cc1c(C(=O)OCc2ccccc2C(F)(F)F)sc2ncn(C)c(=O)c12`, the IC90 (as a rule, the concentration needed for an effect of 90%) was more than 10 µM. Moreover, the IC50 – broadly, the concentration that inhibits the measured activity by half – under setting [1] was found to be 8.3 µM.
As for `NC(Cc1ccccc1)c1csc(Nc2nncc3ccccc23)n1` (stereo not drawn), the IC90 was 3.88 µM. Also, the IC50 (HEPG2TOX_HILL_SLOPE 16.4, HEPG2TOX_R_SQUARED 0.287, PBLUC_HILL_SLOPE 15.9, PBLUC_R_SQUARED 0.415, read-out: LUCIFERASE INFECTION ASSAY - IC50) was found to be 3.38 µM.
As for `CCOC(=O)c1sc2nc(CSc3ccccc3)nc(NCC(O)CN(C)C)c2c1C` (stereo not drawn), the IC90 was more than 10 µM. Under “HEPG2TOX_HILL_SLOPE 7.33, HEPG2TOX_R_SQUARED 0.474, PBLUC_HILL_SLOPE 9.13, PBLUC_R_SQUARED 0.72, read-out: LUCIFERASE INFECTION ASSAY - IC50”, the IC50 was determined as 9.05 µM.
Regarding `CC1CCC/C(=C(/C#N)c2nc(-c3ccccc3O)cs2)C1` (stereo not drawn), the IC90 turned out to be 5.31 µM. In addition, the IC50 (HEPG2TOX_HILL_SLOPE 34.1, 11.7, HEPG2TOX_R_SQUARED 0.352, 0.945, PBLUC_HILL_SLOPE 13.4, PBLUC_R_SQUARED 0.235, read-out: LUCIFERASE INFECTION ASSAY - IC50) turned out to be 4.51 µM.
For the compound `Cc1nc(C(C)(C)C)nc2sc(C(=O)N(C)CC(=O)Nc3cccc(F)c3)c(C)c12`, the IC90 was 3.71 µM. The 50% inhibitory concentration (IC50) (PBLUC_HILL_SLOPE 21.5, PBLUC_R_SQUARED 0.514, read-out: LUCIFERASE INFECTION ASSAY - IC50) turned out to be 3.35 µM.
As to `CCc1ccc(NC(=O)c2ccc(S(=O)(=O)N(C)C)cc2)cc1`, the IC90 is more than 9.93 µM. The IC50 (HEPG2TOX_HILL_SLOPE 5.62, HEPG2TOX_R_SQUARED 0.338, PBLUC_HILL_SLOPE 17.2, PBLUC_R_SQUARED 0.289, read-out: LUCIFERASE INFECTION ASSAY - IC50) is 9.7 µM.
Consider `COc1cccc(NC(=O)c2cc(C)n(Cc3cccs3)c2C)c1`, for which the IC90 was more than 9.69 µM. In addition, the half-maximal inhibitory concentration (IC50) (PBLUC_HILL_SLOPE 0.906, PBLUC_R_SQUARED 0.33, read-out: LUCIFERASE INFECTION ASSAY - IC50) worked out at 6.44 µM.
As to `CC(C)c1ccc(OCC(=O)NC2CCCCCC2)cc1`, the IC90 is more than 11.4 µM. Also, the IC50 under setting [1] is more than 11.4 µM.
Consider `Cn1cc(-c2cn3c(-c4cccc(O)c4)cnc3cn2)cn1`, for which the IC90 was more than 11.3 µM. The IC50 (HEPG2TOX_HILL_SLOPE 8.37, HEPG2TOX_R_SQUARED 0.807, PBLUC_HILL_SLOPE 3.66, PBLUC_R_SQUARED 0.561, read-out: LUCIFERASE INFECTION ASSAY - IC50) came to 6.93 µM.
For the compound `CCCCNC(=O)c1c(NC(=O)C(C)Oc2ccccc2)nc2ccccn12` (stereo not drawn), the IC90 was more than 8.67 µM. The IC50 (HEPG2TOX_HILL_SLOPE 1.79, HEPG2TOX_R_SQUARED 0.135, PBLUC_HILL_SLOPE 4.23, PBLUC_R_SQUARED 0.241, read-out: LUCIFERASE INFECTION ASSAY - IC50) was found to be 6.54 µM.
Take `Cc1ccc(S(=O)(=O)CCN2CCC(C#N)CC2)cc1`: the IC90 was more than 11.3 µM. Also, under setting [1], the IC50 is more than 11.3 µM.
Take `OC(CN1CCCCC1)Cn1c2ccc(Br)cc2c2cc(Br)cc(Br)c21` (stereo not drawn): the IC90 is more than 6.05 µM. Also, under setting [1], the IC50 is more than 6.05 µM.
As to `CCc1c(C(=O)NCC2CCS(=O)(=O)C2)cnn1-c1ccc(C)cc1` (stereo not drawn), the IC90 is more than 10 µM. In addition, the IC50 (PBLUC_HILL_SLOPE 12.8, PBLUC_R_SQUARED 0.197, read-out: LUCIFERASE INFECTION ASSAY - IC50) is more than 10 µM.
In the case of `CCNC(=O)c1cc(Cl)c(OCc2ccccc2)c(OC)c1`, the IC90 is more than 10.3 µM. Moreover, under “PBLUC_HILL_SLOPE 2.26, PBLUC_R_SQUARED 0.647, read-out: LUCIFERASE INFECTION ASSAY - IC50”, the IC50 worked out at 5.81 µM.
Take `O=C(CCC1CCCC1)N1CCC(c2nnc3n2CCC3)CC1`: the IC90 is more than 10 µM. In addition, the IC50 (HEPG2TOX_HILL_SLOPE 0.129, HEPG2TOX_R_SQUARED 0.379, read-out: LUCIFERASE INFECTION ASSAY - IC50) was more than 10 µM.
`CCn1ncc2c(C(=O)Nc3ccc(-c4cn5ccsc5n4)cc3)cc(-c3cccs3)nc21`: the IC90 is more than 10 µM. Further, under “PBLUC_HILL_SLOPE 2.78, PBLUC_R_SQUARED 0.317, read-out: LUCIFERASE INFECTION ASSAY - IC50”, the IC50 came out at 7.98 µM.
As for `COC(=O)c1cc([N+](=O)[O-])ccc1N1CCN(c2cc(C)nc(C(C)C)n2)CC1`, the IC90 was more than 10 µM. Under setting [1], the IC50 is more than 10 µM.
In the case of `O=C(O)COc1ccccc1CS(=O)(=O)c1ccc(Cl)cc1`, the IC90 is more than 9.68 µM. Also, under setting [1], the IC50 was more than 9.68 µM.
In the case of `CCN(CC(=O)NC(C)(C)C)C(=O)c1cc(OC)c(Br)c(OC)c1`, the IC90 was more than 10 µM. Under setting [1], the half-inhibitory concentration (IC50) is more than 10 µM.
In the case of `NC1=NC(=O)C(Cc2ccc(OC(F)(F)F)cc2)S1` (stereo not drawn), the IC90 stood at 1.02 µM. Further, the IC50 (PBLUC_HILL_SLOPE 3.06, PBLUC_R_SQUARED 0.937, read-out: LUCIFERASE INFECTION ASSAY - IC50) stood at 0.497 µM.
For `COc1cc(-c2nccc3n[nH]c(C4CC4)c23)cc(OC)c1OC`, the IC90 was more than 10 µM. In addition, under “HEPG2TOX_HILL_SLOPE 1.34, HEPG2TOX_R_SQUARED 0.994, read-out: LUCIFERASE INFECTION ASSAY - IC50”, the IC50 was more than 10 µM.
`Cc1cc(NC(=O)CCc2ccc(C)c(Cl)c2)n(C)n1`: the IC90 is more than 10 µM. Besides, under setting [1], the IC50 was more than 10 µM.
In the case of `Cn1c(-c2cccc(F)c2)nc2cnc(-c3cccc(Cl)c3)cc21`, the IC90 is more than 10 µM. Further, the 50% inhibitory concentration (IC50) (HEPG2TOX_HILL_SLOPE 19.5, HEPG2TOX_R_SQUARED 0.312, read-out: LUCIFERASE INFECTION ASSAY - IC50) was more than 10 µM.
On to `O=C(Nc1ccc(OCc2nnnn2-c2ccccc2)cc1)c1ccccc1`, for which the IC90 was more than 8.89 µM. In addition, the IC50 under setting [1] is more than 8.89 µM.
With `Cc1[nH]c2ccccc2c1C(=O)C(C)OC(=O)c1c2c(nc3ccccc13)/C(=C/c1cccc([N+](=O)[O-])c1)CCC2` (stereo not drawn), the IC90 is more than 10 µM. In addition, the IC50 (FFLUC_HILL_SLOPE 1.81, FFLUC_R_SQUARED 0.362, PBLUC_HILL_SLOPE 3.43, PBLUC_R_SQUARED 0.216, read-out: LUCIFERASE INFECTION ASSAY - IC50) amounted to 6.23 µM.
As for `Cc1ccc(C)c(OCC(O)CN2CCc3ccccc3C2)c1` (stereo not drawn), the IC90 was more than 9.49 µM. Moreover, under setting [1], the IC50 is more than 9.49 µM.
Turning to `NC(c1csc(NC(=O)Nc2ccccc2-c2ccccc2)n1)C1CCCCC1` (stereo not drawn), the IC90 was more than 8.12 µM. Further, under “PBLUC_HILL_SLOPE 15.5, PBLUC_R_SQUARED 0.0255, read-out: LUCIFERASE INFECTION ASSAY - IC50”, the IC50 is 7.57 µM.
As for `Cc1ccc(Cn2c3nc(C#N)c(C#N)nc3c3c(=O)nc(C)[nH]c32)cc1`, the IC90 is more than 10 µM. In addition, the IC50 under setting [1] is more than 10 µM.
As to `Cc1ccc(/N=C/c2c(-c3ccccc3Cl)[nH]c3ccccc23)cc1C`, the IC90 stood at 4.13 µM. Further, under “HEPG2TOX_HILL_SLOPE 1.53, HEPG2TOX_R_SQUARED 0.955, PBLUC_HILL_SLOPE 2.45, PBLUC_R_SQUARED 0.607, read-out: LUCIFERASE INFECTION ASSAY - IC50”, the IC50 was found to be 1.68 µM.
With `CS(=O)(=O)Nc1nc(-c2ccccn2)nc2scc(-c3ccccc3)c12`, the IC90 came to 3.29 µM. Also, the IC50 (HEPG2TOX_HILL_SLOPE 1.24, HEPG2TOX_R_SQUARED 0.884, PBLUC_HILL_SLOPE 3.45, PBLUC_R_SQUARED 0.254, read-out: LUCIFERASE INFECTION ASSAY - IC50) was 1.74 µM.
As for `CSc1sc(-c2ccnc(SCC(=O)c3ccc(Cl)cc3)n2)c2c1C(=O)CCC2`, the IC90 is more than 7.16 µM. For the same compound, the IC50 under setting [1] was more than 7.16 µM.
Regarding `CC(C)NS(=O)(=O)c1ccc(NC(=S)NC(=O)C(c2ccccc2)c2ccccc2)cc1`, the IC90 was more than 10 µM. Moreover, the IC50 (FFLUC_HILL_SLOPE 1.86, FFLUC_R_SQUARED 0.596, HEPG2TOX_HILL_SLOPE 15.1, HEPG2TOX_R_SQUARED 0.768, PBLUC_HILL_SLOPE 9.02, PBLUC_R_SQUARED 0.275, read-out: LUCIFERASE INFECTION ASSAY - IC50) was 8.35 µM.
With `Cc1ccc(-c2csc(NC(=O)C3CCN(c4ncnc5sc(C)c(C)c45)CC3)n2)cc1`, the IC90 was 1.74 µM. Further, the IC50 (FFLUC_HILL_SLOPE 3.71, FFLUC_R_SQUARED 0.648, HEPG2TOX_HILL_SLOPE 2.17, HEPG2TOX_R_SQUARED 0.62, PBLUC_HILL_SLOPE 8.52, PBLUC_R_SQUARED 0.61, read-out: LUCIFERASE INFECTION ASSAY - IC50) was 1.35 µM.
In the case of `C=c1ccccc1=C1NN=C(Nc2ccc(F)c(F)c2F)O1`, the IC90 is more than 10 µM. The IC50 (FFLUC_HILL_SLOPE 1.45, FFLUC_R_SQUARED 0.745, PBLUC_HILL_SLOPE 0.464, PBLUC_R_SQUARED 0.746, read-out: LUCIFERASE INFECTION ASSAY - IC50) was 0.97 µM.
On to `COc1ccc2cc(-c3nc4ccc(Cl)cc4c(-c4ccccc4F)c3C)ccc2c1`, for which the IC90 was more than 10 µM. For the same compound, the IC50 under setting [1] came to 6.1 µM.
In the case of `O=C(NC(c1ccccc1)C1CC1)c1cccc(S(=O)(=O)N2CCN(c3ccc(F)cc3)CC2)c1` (stereo not drawn), the IC90 is more than 10 µM. For the same compound, the IC50 (FFLUC_HILL_SLOPE 1.82, FFLUC_R_SQUARED 0.654, PBLUC_HILL_SLOPE 3.16, PBLUC_R_SQUARED 0.76, read-out: LUCIFERASE INFECTION ASSAY - IC50) was 7.34 µM.
For `CN(C)S(=O)(=O)c1ccc(Cn2cc(C(=O)NCc3cccc(C(F)(F)F)c3)sc2=O)cc1`, the IC90 was more than 6.61 µM. Further, under “PBLUC_HILL_SLOPE 16, PBLUC_R_SQUARED 0.195, read-out: LUCIFERASE INFECTION ASSAY - IC50”, the IC50 worked out at 6.47 µM.
`Cc1ccc(CSc2nnc(-c3ccccc3N)c(O)n2)cc1`: the IC90 is more than 10.2 µM. Further, the IC50 under setting [1] was more than 10.2 µM.
On to `Cc1cc(C)c(CSCCNC2=CC(=O)CC(c3ccc(Cl)cc3)C2)c(C)c1` (stereo not drawn), for which the IC90 was more than 7.97 µM. Under setting [1], the IC50 was more than 7.97 µM.
